The results in this text go back to ChEMBL document CHEMBL5230124, “Advances of CCR5 antagonists: From small molecules to macromolecules” (Eur J Med Chem, 2020).

A short description of data set [1]: Antifertility activity against human Spermatozoa assessed as decrease in sperm motility for 120 mins by hematocytometer analysis. The format is functional, cell-based.
Data set [2] can be described thus: Half life in human plasma. The format is ADME, cell-free.
Data set [3] is described as follows: AUC in Wistar rat at 10 mg/kg, IM administered as H3-lableled compound by scintillation counting method. The format is ADME, organism-based. Set-up: dose 10 mg/kg, route im. To be noted: in vivo.
Data set [4] can be described thus: Terminal half life in Wistar rat at 10 mg/kg, IM administered as H3-lableled compound by scintillation counting method. The format is ADME, organism-based. To be noted: in vivo.

Converted amounts (≈) assume the structure as drawn.

As for `CCN(Cc1ccccc1)C(=O)C1CCN(CCCN(C(=O)C2CCN(C(C)=O)CC2)c2ccc(C)c(Cl)c2)CC1`, the EC50 – broadly, the concentration at which the effect is half-maximal – in data set [1] is 1500 µg/mL (≈ 2580 µM).

For `CCCCOCCOc1ccc(-c2ccc3c(c2)/C=C(/C(=O)Nc2ccc([S@@+]([O-])Cc4cncn4CCC)cc2)CCCN3CC(C)C)cc1` [CENICRIVIROC], the half-life – broadly, how long it takes for the measured level to halve – in data set [2] is 30 h.

On to `Cc1nnc(C(C)C)n1[C@H]1C[C@H]2CC[C@@H](C1)N2CC[C@H](NC(=O)C1CCC(F)(F)CC1)c1ccccc1` [MARAVIROC], for which the AUC (as a rule, concentration integrated over time) in data set [3] was 567.17 ng·h/mL. Besides, the “beta t1/2” value in data set [4] worked out at 53.23 h.
